The record followed here is US10584127B2, “3,3-difluoropiperidine carbamate heterocyclic compounds as NR2B NMDA receptor antagonists” (Rugen Holdings (Cayman) Limited, priority 2015, dated 2020).

The subject of series [1] is formalin-induced nociceptive behavior. Nature of the series: Rat Formalin Model. The class given is in vivo. The note with it: rat, 10, 30 and 60 mpk i.p., mesylate salt. As to the method:
The rat formalin model is a tonic model of continuous pain resulting from formalin-induced spontaneous nociceptive behaviors. Intra-paw injection of formalin is a commonly used model to measure spontaneous nociceptive behaviors in rodents (Dubuisson, D. and Dennis, S. G. Pain 4:161, 1977). Subcutaneous plantar injection of formalin causes a bi-phasic nocifensive behavioral response in rodents. The early phase (phase-I) lasts for about 5-10 min following which an interphase occurs without any discernible nociceptive reactions after which the late phase (phase-II) nociceptive reaction ensues continuing from about 20-60 min following formalin injection. Formalin model is a model of tonic, persistent pain, and is widely used for rapid screening of novel analgesic compounds. […] In the present example, effects of test item were assessed in 0-5 minutes from the early phase (phase-I) and 20-35 minutes from the late phase (phase-II) of formalin-induced nociceptive behavior. […]
For all groups, animals were acclimated to the observation chamber for 15 minutes immediately prior to formalin injection. All animals received an intraplantar subcutaneous injection of 50 μL of 5% formalin into the left hind paw and then placed immediately into an observation chamber and formalin-evoked spontaneous nociceptive behaviors in the rats were continuously recorded for 0-60 min using a commercial camcorder. […]

The test system of series [2] is pentylenetetrazole-induced convulsions. Nature of the series: Pentylenetetrazole (PTZ) Seizure Test. The format is in vivo, rats. The note with it: 10 mg/kg p.o., mesylate salt, PTZ 100 mg/kg s.c. The method, then:
Rats, placed in individual macrolon cages (25×19×13 cm), were injected with pentylenetetrazole (PTZ) (100 mg/kg s.c.). The occurrence and latency of clonic and tonic convulsions and death were noted over a 30 minute period. 15 rats were studied per group. The test was performed blind.
Test compound E1-8.2 was administered as the free base.
Compounds were evaluated typically using 0.5% dimethylsulfoxide, 4% hydroxypropyl-b-cyclodextrin water as a vehicle at 1 or more doses (e.g., 1, 3 and 10 mg/kg), administered p.o. 30 minutes before PTZ, and compared with a vehicle control group. Diazepam (16 mg/kg p.o.), administered 60 minutes before PTZ, was used as reference substance. The experiment was performed over 2 separate sub-experiments with N=7 to 8 animals per group and per sub-experiment. Quantitative data (latencies) with the test substance was analyzed by comparing treated groups with vehicle control using Kruskal-Wallis test followed by Mann-Whitney U test. Quantitative data with the reference substance was analyzed using Mann-Whitney U test. Quantal data (frequencies) was analyzed by comparing treated groups with vehicle control using Fisher's Exact Probability tests (*=p<0.05; **=p<0.01; ***=p<0.001).

Another series addresses CYP2D6 (Homo sapiens (Human), UniProt P10635). Put plainly: CYP P450 enzyme inhibition, pooled human liver microsome. The format is in vitro ADME. The settings on record: HLM, dextromethorphan 5 μM.
In a further series the target is cloned human NR1/NR2A (Homo sapiens (Human), UniProt Q12879). Put plainly: NR2A antagonist activity, Fluo-4 calcium influx in HEK293 cells. The settings on record: glutamate 100 μM, glycine 50 μM. The class given is cell-based.
Series [3] concerns electroconvulsive threshold (tonic convulsions). Put plainly: Electroconvulsive Threshold Test (ECT). The settings on record: rats, 3, 10 and 30 mpk p.o., mesylate salt. The class given is in vivo, rats. The method, then: Rats were administered ECS (rectangular current: 0.6 ms pulse width, 1.5 s duration, 200 Hz) via earclip electrodes connected to a constant current shock generator (Ugo Basile: type 7801). Test compounds were administered by oral gavage (p.o.) 1 hour before the test at a dose volume of 5 mL/kg.
Treatment groups of 20 rats were exposed to ECS as follows: The first animal was exposed to 30 mA of ECS. […] (increases of 5 mA) until the first tonic convulsion was observed. Once the first tonic convulsion was observed, the intensity of ECS was decreased by 2 mA for the next animal and then decreased or increased by 2 mA from animal to animal depending on whether the previous animal convulsed or not. If the first animal did convulse (tonic convulsions) within 5 seconds, animal n°2 is exposed to 25 mA, etc . . . (decreases of 5 mA) until the absence of tonic convulsions was observed. At this point, the intensity of ECS was increased by 2 mA for the next animal and then decreased or increased by 2 mA from animal to animal depending on whether the previous animal convulsed or not. The minimum current intensity applied is 5 mA and the maximum 95 mA. The first 5 animals serve to approach threshold current and were not included in the analysis. The results are presented as the mean current intensity administered to the final 15 animals of a group. The test was performed blind. A positive percent change indicates an anticonvulsant effect. A negative percent change indicates a proconvulsant effect. The test substance was evaluated at 4 doses, typically using 0.5% dimethylsulfoxide, 4% hydroxypropyl-b-cyclodextrin water as a vehicle, and administered p.o. 60 minutes before ECS, and compared with a vehicle control group. Diazepam (16 mg/kg p.o.), administered under the same experimental conditions, was used as reference substance. The experiment included 6 groups. Data with the test substance was analyzed by comparing treated groups with vehicle control using one-way ANOVA followed by Dunnett's t tests.

Chain of cloned human NR1/NR2A (Q12879 23-1464, other chains not shown): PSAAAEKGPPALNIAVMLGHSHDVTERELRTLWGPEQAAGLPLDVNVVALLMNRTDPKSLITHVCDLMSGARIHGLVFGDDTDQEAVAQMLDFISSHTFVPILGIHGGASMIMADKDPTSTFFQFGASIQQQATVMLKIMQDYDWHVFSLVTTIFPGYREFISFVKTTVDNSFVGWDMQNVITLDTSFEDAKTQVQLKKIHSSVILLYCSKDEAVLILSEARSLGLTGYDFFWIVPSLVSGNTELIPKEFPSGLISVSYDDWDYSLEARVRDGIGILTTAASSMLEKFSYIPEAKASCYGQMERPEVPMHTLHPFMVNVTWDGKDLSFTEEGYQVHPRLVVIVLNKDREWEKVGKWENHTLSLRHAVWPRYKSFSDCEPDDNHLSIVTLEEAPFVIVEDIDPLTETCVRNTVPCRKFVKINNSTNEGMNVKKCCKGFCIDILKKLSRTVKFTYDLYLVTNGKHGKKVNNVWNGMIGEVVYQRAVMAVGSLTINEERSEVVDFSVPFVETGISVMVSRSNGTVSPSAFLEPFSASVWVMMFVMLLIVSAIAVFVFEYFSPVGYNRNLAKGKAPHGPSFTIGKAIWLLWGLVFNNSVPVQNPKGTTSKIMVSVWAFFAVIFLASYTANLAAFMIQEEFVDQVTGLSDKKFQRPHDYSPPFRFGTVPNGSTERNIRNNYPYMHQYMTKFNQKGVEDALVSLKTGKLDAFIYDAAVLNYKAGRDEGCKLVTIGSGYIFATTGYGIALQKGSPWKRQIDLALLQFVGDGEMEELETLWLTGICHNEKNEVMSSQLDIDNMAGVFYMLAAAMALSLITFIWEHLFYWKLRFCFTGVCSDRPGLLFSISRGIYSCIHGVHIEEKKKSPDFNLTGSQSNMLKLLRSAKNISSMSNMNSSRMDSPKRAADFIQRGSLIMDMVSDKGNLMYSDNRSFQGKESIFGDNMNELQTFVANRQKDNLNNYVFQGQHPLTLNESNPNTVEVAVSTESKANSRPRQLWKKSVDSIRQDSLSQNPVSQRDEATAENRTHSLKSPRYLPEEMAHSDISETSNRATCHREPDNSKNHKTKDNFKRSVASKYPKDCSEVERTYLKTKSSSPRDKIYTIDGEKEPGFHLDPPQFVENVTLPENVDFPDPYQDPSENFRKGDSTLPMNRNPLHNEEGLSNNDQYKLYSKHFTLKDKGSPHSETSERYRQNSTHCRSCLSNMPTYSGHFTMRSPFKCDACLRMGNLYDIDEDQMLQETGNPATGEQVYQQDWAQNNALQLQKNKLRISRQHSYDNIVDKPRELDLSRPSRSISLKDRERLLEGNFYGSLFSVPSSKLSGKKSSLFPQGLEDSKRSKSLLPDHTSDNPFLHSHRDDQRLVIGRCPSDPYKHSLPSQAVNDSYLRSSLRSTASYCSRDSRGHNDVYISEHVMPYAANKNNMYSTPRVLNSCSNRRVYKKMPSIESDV
Chain of CYP2D6 (P10635 whole entry): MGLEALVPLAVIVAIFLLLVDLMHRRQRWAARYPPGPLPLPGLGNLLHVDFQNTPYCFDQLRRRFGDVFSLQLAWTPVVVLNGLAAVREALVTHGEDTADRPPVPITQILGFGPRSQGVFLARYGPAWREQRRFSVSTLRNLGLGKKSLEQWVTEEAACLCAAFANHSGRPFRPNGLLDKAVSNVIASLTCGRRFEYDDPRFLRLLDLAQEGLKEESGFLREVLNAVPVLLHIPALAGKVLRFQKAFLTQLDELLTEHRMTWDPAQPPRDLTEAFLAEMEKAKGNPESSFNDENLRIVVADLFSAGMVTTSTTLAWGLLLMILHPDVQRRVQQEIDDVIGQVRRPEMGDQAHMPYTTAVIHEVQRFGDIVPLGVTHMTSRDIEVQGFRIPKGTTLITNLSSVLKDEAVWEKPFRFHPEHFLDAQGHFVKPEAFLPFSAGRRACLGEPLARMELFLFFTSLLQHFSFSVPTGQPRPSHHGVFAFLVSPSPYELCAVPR
Protocol for CYP2D6: Those CYP isoforms and their corresponding probe substrates are as follows: CYP1A2 (phenacetin, 30 μM), CYP2C9 (tolutamide, 100 μM), CYP2C19 (S-mephenytoin, 40 μM), CYP2D6 (dextromethorphan, 5 μM) and CYP3A4 (midazolam, 1 μM). All probe substrates were used at concentrations near or below their Kms. For experiment, a reaction mixture of test compound at 10 μM or in serial dilution, CYP probe substrate described above and 0.2 mg/mL pooled HLM in phosphate buffer, pH 7.4 in a final volume of 200 μL was pre-incubated at 37° C. for 10 minutes in triplicate. The reaction was initiated by addition of NADPH at final concentration of 1 mM. The reaction was terminated after 10 minutes (CYP1A2, CYP2D6 and CYP3A4) or 30 minutes (CYP2C9 and CYP2C19) by addition of 100 μL ice-cold acetonitrile with internal standard (IS). The samples were then centrifuged at 13,000 rpm and the supernatants were injected to LC-MS/MS (Agilent Technologies) to quantify the concentration of the specific metabolites of the probe substrates formed by individual CYP450 isoforms. The inhibition ratio is calculated as: (Mt−M0)/Mwater×100% in which Mt and M0 represent the concentrations of the specific probe substrate metabolite, which was formed by individual CYP450 isoform, at the beginning and end of the reaction in the presence of test compound; while Mwater represents the concentration of the specific metabolite at the end of the reaction in the absence of test compound. Test compound concentration-dependent response data experiments performed in triplicate.
Protocol for cloned human NR1/NR2A: Activation of the NR2A or NR2B subtype of NMDA receptor with glutamate as an agonist and glycine co-agonist on these cells results in calcium influx, which can be monitored with fluorescent indicator Fluo-4.
For experiments, the cells were seeded onto poly-D-lysine-coated 96-well black plates with clear bottom (Corning) at a density of ^˜50,000 cells/well. After overnight culture, the growth medium was removed from the wells and the cells were incubated at 37° C. for 60 min in Hanks buffer containing 4 μM fluo-4-AM (Invitrogen) and 0.1% bovine serum albumin (BSA). After dye-loading, the cells were washed three times with Hanks buffer and incubated for 10 min at room temperature with various concentrations of test compounds prepared in Hanks buffer with 0.1% BSA. The cell plates were placed onto FDSS μCell fluorescence reader (Hamamatsu). After 20 sec reading of background fluorescence, agonist glutamate at final 100 μM and co-agonist glycine at final 50 μM were added to the cells to activate the receptor, and the resulting fluorescence changes were recorded and quantified. Based on the changes in fluorescence intensity, the pharmacological effect of test compounds were analyzed and the IC50 values derived from a non-linear least squares fitting of the concentration-dependent response to a standard logistic equation using Prism (Graphpad, Inc): Amplitude=Max Amplitude/(1+(IC50/[antagonist])^n).

Consider `Cc1ccc(COC(=O)N2CC[C@H](CNc3nccn4cnnc34)C(F)(F)C2)cc1` [Compound E1-1.2, (+)-R-4-methylbenzyl 4-(([1,2,4]triazolo[4,3-a]pyrazin-8-ylamino)methyl)-3,3-difluoropiperidine-1-carboxylate], for which, in series [1], the “cumulative time spent on nociceptive behavior in phase I (0-5 mins)” value is listed as “decreased” and the “cumulative time spent on nociceptive behavior in phase II (20-35 mins)” value was “decreased”. For the same compound, in series [2], the “latency to death, change vs vehicle controls” value is “+35%” and the “number of deaths, change vs vehicle controls” value was −91%. Also, at CYP2D6, the “CYP2D6 @ 10 μM (%)” value was found to be 14%. Further, at cloned human NR1/NR2A, the concentration for half-maximal inhibition (IC50) (commonly the concentration needed to halve the response being measured) was above 10 µM. The “activity on electroconvulsive threshold” value in series [3] was “robust anticonvulsant activity”.
